Reference: paper PMC6940354, “Comparative Assessment of the New PDE7 Inhibitor – GRMS-55 and Lisofylline in Animal Models of Immune-Related Disorders: A PK/PD Modeling Approach” (Pharmaceutical Research, 2020)
In brackets after ≈: the same amount, converted by molar mass.

Key:
[1] = system: TNF-α release from LPS-stimulated whole rat blood; test: Inhibition of LPS-induced TNF-α release in whole rat blood; type: cell-based; conditions: LPS 10 mg L^−1, 6 h incubation, compared to LPS-treated control
Procedure: Stimulation of whole rat blood by LPS was performed on 96-well plates. […] Contents of each well (200 μL) consisted of heparinized rat blood containing 10 U heparin mL^−1 diluted with RPMI-1640 medium at a ratio of 1:1 (v/v). All compounds were dissolved in DMSO and added to blood (the final DMSO concentration in blood was 0.5%) 15 min prior to the addition of LPS dissolved in RPMI-1640 medium to achieve the LPS concentration of 10 mg L^−1. Both, LPS and DMSO were also added to control wells at the same concentrations. Additional control samples (for testing baseline TNF-α levels in blood) consisted of DMSO (0.5%) without LPS. The incubation was performed at 37°C in a humidified atmosphere of 5% CO2 in an MCO-5 AC-PE incubator (PHCbi, Japan). After 6 h of incubation, the plates were centrifuged for 10 min using PlateFuge MicroCentrifuge (Benchmark Scientific, USA). The individual plasma samples were harvested and stored at −80°C until analysis.
(§1) TNF-α levels in LPS-stimulated rat blood in vitro and in rat plasma samples from the in vivo studies were analyzed by the Rat TNF-α Quantikine ELISA Immunoassay Kit (R&D Systems, USA) according to the manufacturer’s instructions. The assay was linear at the range of 12.5–800 pg mL^−1. Levels of TNF-α in mice serum were measured by ELISA Kits for Tumor Necrosis Factor Alpha (Cloud-Clone Corp., USA). This assay was linear at the range of 15.6–1000 pg mL^−1. Absorbance was measured at 450 nm using a POLARstar Omega multi-mode microplate reader (BMG LABTECH, Germany).

[2] = system: TNF-α plasma levels in male Wistar rats with LPS-induced endotoxemia; test: LPS-induced endotoxemia in rats, PK/PD model of plasma TNF-α; type: in vivo, rat
Procedure: Male Wistar rats were implanted with catheters (SAI Infusion Technologies, USA) into the jugular vein and after a two-day recovery period they were administered with LPS dissolved in saline at a dose of 1 mg kg ^−1 into the tail vein simultaneously with one of the investigated compounds. […] The doses of the compounds were selected based on the literature data or results of our previous experiments. Each control group received LPS at the same IV dose and an appropriate volume of corresponding vehicle. […] The plasma samples were collected and stored at −80°C until analysis.
as §1
PK/PD and PK/PD/DIS progression models were developed considering the mechanism of action of the investigated compounds, the mechanisms of disease progression in the case of CIA, and the subsequent stages leading to TNF-α release in the case of LPS-induced endotoxemia. Various numbers of transit compartments were tested during development of the models, and the final models were chosen based on the goodness-of-fit criteria, such as AIC, SBC, a visual inspection of the fitting, and parameter precision. Estimated values of pharmacokinetic parameters were fixed during PK/PD and PK/PD/DIS progression model fitting procedures. […] PK/PD and PK/PD/DIS progression modeling were performed in ADAPT 5 software using the weighted least squares algorithm.
Therefore, as a result of PK/PD analysis, three sets of pharmacodynamic parameters were obtained based on the data from the three individual experiments.
The applied model is a modified indirect response model ([19]) with implemented transit compartments (T1-T4) that describe the delay of the observed pharmacodynamic response. In this scheme τ is the mean transit time, kin is the time limited (from 0 to tlag) zero-order rate constant of production of a TNF-α precursor (e.g., TNF-α mRNA). Different numbers of transit compartments were tested during the model development, but the best fit was observed using four transit compartments.
All Imax values were fixed to 1.

[3] = system: LPS-stimulated murine macrophages (RAW263.7 cells); parameters: method as in PMID 14998551; conditions: cited from earlier work
[4] = system: TNF-α release in mice model of endotoxemia; parameters: method as in PMID 20389149; conditions: mice model of endotoxemia ref [19]; cited from earlier work
cAMP degradation = system: cAMP degradation; parameters: method as in PMID 28730281; conditions: rats, cAMP as a marker of pharmacological response ref [9]; cited from earlier work
PDE4 = system: PDE4; parameters: method as in PMID 14998551; conditions: ref [31]; read-out: IC50PDE4; cited from earlier work
[5] = system: LPS-stimulated human PBMC; parameters: method as in PMID 14998551; conditions: LPS-stimulated human PBMC ref [31]; read-out: IC50, TNF-α production; cited from earlier work

Row | SMILES | Reduction of TNF-α levels in LPS-stimulated whole rat blood (result in words) [1] | IC50 ([2]; Rattus norvegicus, iv, read-out: IC50, concentration of compound producing 50% of Imax (inhibition of TNF-α release in vivo), Final estimate (CV%), plasma concentration, PK/PD model, Imax fixed to 1, male Wistar rats, LPS 1 mg kg^−1 IV, IV GRMS-55 20, rolipram 5, (±)-LSF and PTX 40 and 80 mg kg^−1) [µg/mL] | activity in inhibiting TNF-α release in vivo, times lower than that of rolipram ([2]; ratio of IC50 values to rolipram) | TNF-α production (result in words) ([3]; RAW263.7 cells, concentrations of 500 and 1000 μM ref [31]) | IC50 value for the inhibition of TNF-α release [4] [mg/L] | IC50 value for the inhibition of cAMP degradation (cAMP degradation) [mg/L] | IC50 (PDE4) [nM] | IC50 ([3]; LPS-stimulated murine macrophage cell line ref [31], read-out: IC50, TNF-α production) [nM] | IC50 [5] [nM]
1 | CC(=O)CCCCn1c(=O)c2c(ncn2C)n(C)c1=O [PTX, Pentoxifylline] | significantly and with similar potency reduced | 14 (≈ 50.3 µM) | ~ 39 times | significantly inhibited TNF-α production | 0.47 | 4.48 | – | – | –
2 | C[C@@H](O)CCCCn1c(=O)c2c(ncn2C)n(C)c1=O [R-(−)-LSF] | – | – | – | – | 1.61 | – | – | – | –
3 | COc1ccc(C(=O)Nc2c(Cl)cncc2Cl)cc1OC1CCCC1 [RP73401] | – | – | – | – | – | – | 1 | 2.7 | 3.3
